# From patent US20070249670A1, “Glycogen Phosphorylase Inhibitor Compounds and Pharmaceutical Compositions Thereof” (SMITHKLINE BEECHAM CORPORATION, priority 2004, published 2007)
# Structures can show the parent of a compound that is named as a salt.
# Biological target: T1, human liver glycogen phosphorylase a (HLGPa) (Homo sapiens, UniProt P06737)
# T1 construct: creating a full-length cDNA fused at the 5′ end to codons for methionine-glycine-alanine-histidine; 6xHis tag (leader Met-Gly-Ala-His6-Gly-Gly) (N); made in house; host or cells: E. coli (bacterial expression plasmid pTXK1007LTev)
# T1 sequence (P06737 2-847 limits assumed): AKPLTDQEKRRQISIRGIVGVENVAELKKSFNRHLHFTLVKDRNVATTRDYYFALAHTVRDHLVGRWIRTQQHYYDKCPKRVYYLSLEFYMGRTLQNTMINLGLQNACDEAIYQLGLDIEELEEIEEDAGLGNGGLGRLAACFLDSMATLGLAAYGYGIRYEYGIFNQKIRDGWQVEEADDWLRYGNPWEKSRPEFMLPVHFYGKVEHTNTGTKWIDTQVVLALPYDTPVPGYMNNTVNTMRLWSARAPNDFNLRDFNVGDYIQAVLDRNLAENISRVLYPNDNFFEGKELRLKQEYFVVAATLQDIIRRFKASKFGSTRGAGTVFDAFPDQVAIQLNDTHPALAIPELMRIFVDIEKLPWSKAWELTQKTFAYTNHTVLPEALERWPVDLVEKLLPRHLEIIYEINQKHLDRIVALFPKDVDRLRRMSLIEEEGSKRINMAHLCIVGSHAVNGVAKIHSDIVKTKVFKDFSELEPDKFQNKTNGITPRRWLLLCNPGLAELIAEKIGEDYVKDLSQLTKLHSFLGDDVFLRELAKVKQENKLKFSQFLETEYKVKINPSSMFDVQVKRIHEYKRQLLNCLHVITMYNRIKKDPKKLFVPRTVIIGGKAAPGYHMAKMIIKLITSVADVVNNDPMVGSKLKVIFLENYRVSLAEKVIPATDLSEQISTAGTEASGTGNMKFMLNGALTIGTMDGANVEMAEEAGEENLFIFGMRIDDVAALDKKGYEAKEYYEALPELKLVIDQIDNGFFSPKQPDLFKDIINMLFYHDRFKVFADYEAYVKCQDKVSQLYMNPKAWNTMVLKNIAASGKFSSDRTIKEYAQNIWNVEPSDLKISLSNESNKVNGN
# Experiment: Human liver glycogen phosphorylase a enzymatic activity assay (coupled, fluorescent resorufin readout, with and without 10 mM glucose)
# Format: biochemical
# Details: human liver glycogen phosphorylase a enzymatic activity assay
row,Structure (SMILES),IC50 [nM]
1,"CCCC[C@H](NC(=O)c1sc(-c2ccc(OC)cc2)cc1NC(=O)Nc1c(C)cc(C)cc1C)C(=O)O [Example 443, N-{[5-[4-(methyloxy)phenyl]-3-({[(2,4,6-trimethylphenyl)amino]carbonyl}amino)-2-thienyl]carbonyl}-L-norleucine]",43
2,"CC[C@H](C)[C@H](NC(=O)c1cc(F)c(F)cc1NC(=O)Nc1c(C)cccc1C)C(=O)O [Example 80, N-[2-({[(2,6-dimethylphenyl)amino]carbonyl}amino)-4,5-difluorobenzoyl]-L-isoleucine]",8730
3,"Cn1cc(-c2cc(C(=O)O)c(NC(=O)Nc3c(Cl)cccc3Cl)s2)cn1 [Example 422, 2-({[(2,6-dichlorophenyl)amino]carbonyl}amino)-5-(1-methyl-1H-pyrazol-4-yl)-3-thiophenecarboxylic acid]",6340
4,"Cc1cc(C)c(NC(=O)Nc2cc(-c3ccc(Cl)cc3)sc2C(=O)NC2(C(=O)O)CCCCC2)c(C)c1 [Example 533, 1-({[5-(4-Chlorophenyl)-3-({[(2,4,6-trimethylphenyl)amino]carbonyl}amino)-2-thienyl]carbonyl}amino)cyclohexanecarboxylic acid]",3
5,"COc1ccc(-c2cc(NC(=O)Nc3c(C)cc(C)cc3C)c(C(=O)NC3(C(=O)O)CC3)s2)cc1 [Example 449, 1-({[5-[4-(methyloxy)phenyl]-3-({[(2,4,6-trimethylphenyl)amino]carbonyl}amino)-2-thienyl]carbonyl}amino)cyclopropanecarboxylic acid]",340
6,"CCCc1cc(C)c(NC(=O)Nc2cc3ccccc3cc2C(=O)N[C@H](C(=O)O)C2CCCCC2)c(C)c1 [Example 470, (2S)-cyclohexyl({[3-({[(2,6-dimethyl-4-propylphenyl)amino]carbonyl}amino)-2-naphthalenyl]carbonyl}amino)ethanoic acid]",2

# Next, values leading:
row,IC50 [nM],Structure (SMILES)
1,2780,"O=C(O)C[C@H](NC(=O)c1cc2ccccc2cc1NC(=O)Nc1ccccc1Cl)C(=O)O [Example 9, N-[3-({[(2-chlorophenyl)amino]carbonyl}amino)-2-naphthoyl]-L-aspartic acid]"
2,2230,"Cc1cccc(Cl)c1NC(=O)Nc1cc2ccccc2cc1C(=O)N[C@@H](CC1CCCCC1)C(=O)O [Example 122, N-[3-({[(2-chloro-6-methylphenyl)amino]carbonyl}amino)-2-naphthoyl]-3-cyclohexyl-L-alanine]"
3,19600,"COc1cc(NC(=O)Nc2c(C)cccc2C)c(C(=O)NC(C(=O)O)c2ccccc2)cc1OC (centres unmarked) [Example 105, {[2-({[(2,6-dimethylphenyl)amino]carbonyl}amino)-4,5-dimethoxybenzoyl]amino}(phenyl)acetic acid]"
4,9110,"Cc1cccc(C)c1NC(=O)Nc1cc(F)c(F)cc1C(=O)N[C@@H](CC(=O)O)C(=O)O [Example 78, N-[2-({[(2,6-dimethylphenyl)amino]carbonyl}amino)-4,5-difluorobenzoyl]-L-aspartic acid]"
5,13600,"COc1cc(NC(=O)Nc2c(C)cccc2C)c(C(=O)N[C@@H](CC2CCCCC2)C(=O)O)cc1OC [Example 119, 3-cyclohexyl-N-[2-({[(2,6-dimethylphenyl)amino]carbonyl}amino)-4,5-dimethoxybenzoyl]-L-alanine]"
6,90,"Cc1cccc(C)c1NC(=O)Nc1cc2ccccc2cc1C(=O)NCC(=O)O [Example 11, N-[3-({[(2,6-dimethylphenyl)amino]carbonyl}amino)-2-naphthoyl]glycine]"
7,9050,"COc1cc(NC(=O)Nc2ccccc2Cl)c(C(=O)N[C@@H](Cc2c[nH]c3ccccc23)C(=O)O)cc1OC [Example 77, N-[2-({[(2-chlorophenyl)amino]carbonyl}amino)-4,5-dimethoxybenzoyl]-L-tryptophan trifluoroacetate]"
8,1320,"Cc1cccc(Cl)c1NC(=O)Nc1cc2ccccc2cc1C(=O)N[C@@H](CCC(N)=O)C(=O)O [Example 41, N-[3-({[(2-chloro-6-methylphenyl)amino]carbonyl}amino)-2-naphthoyl]-L-glutamine]"
9,28,"Cc1cc(C)c(NC(=O)Nc2cc3ccccc3cc2C(=O)N[C@@H](COCc2ccccc2)C(=O)O)c(C)c1 [Example 509, O-(Phenylmethyl)-N-{[3-({[(2,4,6-trimethylphenyl)amino]carbonyl}amino)-2-naphthalenyl]carbonyl}-L-serine]"
10,640,"CSCC[C@H](NC(=O)c1cc2ccccc2cc1NC(=O)Nc1c(C)cccc1Cl)C(=O)O [Example 60, N-[3-({[(2-chloro-6-methylphenyl)amino]carbonyl}amino)-2-naphthoyl]-L-methionine]"
11,7880,"Cc1cccc(Cl)c1NC(=O)Nc1cc2ccccc2cc1C(=O)N[C@@H](Cc1ccc(Br)cc1)C(=O)O [Example 91, 4-bromo-N-[3-({[(2-chloro-6-methylphenyl)amino]carbonyl}amino)-2-naphthoyl]-L-phenylalanine]"

# Same assay, conditions: human liver glycogen phosphorylase a; table does not say whether with or without 10 mM glucose
row,Structure (SMILES),IC50 [nM]
1,"Cc1cccc(C)c1NC(=O)Nc1cc2ccccc2cc1C(=O)N(CC(=O)O)CC1CCCCC1 [Example 243, N-(cyclohexylmethyl)-N-{[3-({[(2,6-dimethylphenyl)amino]carbonyl}amino)-2-naphthalenyl]carbonyl}glycine]",1770
2,"O=C(Nc1cc(-c2ccc(F)cc2)sc1C(=O)O)Nc1c(Cl)cccc1Cl [Example 385, 3-({[(2,6-dichlorophenyl)amino]carbonyl}amino)-5-(4-fluorophenyl)-2-thiophenecarboxylic acid]",1140
3,"Cc1cc(C)c(NC(=O)Nc2cc(-c3ccc(F)cc3)ccc2C(=O)N[C@H](C(=O)O)C2CCCCC2)c(C)c1 [Example 223, (2S)-Cyclohexyl({[4′-fluoro-3-({[(2,4,6-trimethylphenyl)amino]carbonyl}amino)-4-biphenylyl]carbonyl}amino)ethanoic acid]",9
4,"O=C(Nc1cc2ccccc2cc1C(=O)NC1(C(=O)O)CCCCCCC1)Nc1c(Cl)cc(Cl)cc1Cl [Example 303, 1-({[3-({[(2,4,6-trichlorophenyl)amino]carbonyl}amino)-2-naphthalenyl]carbonyl}amino)cyclooctanecarboxylic acid]",57
5,"Cc1cccc(C)c1NC(=O)Nc1cc2ccccc2cc1C(=O)N(CC(=O)O)C1CCCCC1 [Example 245, N-cyclohexyl-N-{[3-({[(2,6-dimethylphenyl)amino]carbonyl}amino)-2-naphthalenyl]carbonyl}glycine]",2130
6,"O=C(Nc1cc2ccccc2cc1C(=O)NC1(C(=O)O)CCCCC1)Nc1c(Cl)cc(Cl)cc1Cl [Example 281, 1-({[3-({[(2,4,6-trichlorophenyl)amino]carbonyl}amino)-2-naphthalenyl]carbonyl}amino)cyclohexanecarboxylic acid]",1620

# Other lines, results leading:
row,IC50 [nM],Structure (SMILES)
1,1170,"O=C(Nc1sc(-c2ccccc2)cc1C(=O)O)Nc1c(Cl)cccc1Cl [Example 382, 2-({[(2,6-dichlorophenyl)amino]carbonyl}amino)-5-phenyl-3-thiophenecarboxylic acid]"
2,130,"O=C(Nc1cc(-c2ccccc2)ccc1C(=O)N[C@H](C(=O)O)C1CCCCC1)Nc1c(Cl)cc(Cl)cc1Cl [Example 200, (2S)-Cyclohexyl({[3-({[(2,4,6-trichlorophenyl)amino]carbonyl}amino)-4-biphenylyl]carbonyl}amino)ethanoic acid]"
3,1560,"Cc1cc(C)c(NC(=O)Nc2cc3ccccc3cc2C(=O)N[C@H](CC(=O)O)C(C)C)c(C)c1 [Example 339, (3R)-4-methyl-3-({[3-({[(2,4,6-trimethylphenyl)amino]carbonyl}amino)-2-naphthalenyl]carbonyl}amino)pentanoic acid]"
4,4350,"O=C(O)CN(Cc1ccccc1)C(=O)c1cc2ccccc2cc1NC(=O)Nc1c(Cl)cc(Cl)cc1Cl [Example 332, N-(phenylmethyl)-N-{[3-({[(2,4,6-trichlorophenyl)amino]carbonyl}amino)-2-naphthalenyl]carbonyl}glycine]"
5,45,"Cc1cc(C)c(NC(=O)Nc2cc3ccccc3cc2C(=O)N[C@@H](COC2CCOCC2)C(=O)O)c(C)c1 [Example 276, O-(tetrahydro-2H-pyran-4-yl)-N-{[3-({[(2,4,6-trimethylphenyl)amino]carbonyl}amino)-2-naphthalenyl]carbonyl}-L-serine]"
6,2,"CCCc1cc(C)c(NC(=O)Nc2cc(-c3ccc(OC)cc3)ccc2C(=O)N[C@@H](CC(=O)O)C(=O)O)c(C)c1 [Example 370, N-{[3-({[(2,6-dimethyl-4-propylphenyl)amino]carbonyl}amino)-4′-(methyloxy)-4-biphenylyl]carbonyl}-L-aspartic acid]"
